Laboratory results: patent US9573913B2, “Cathepsin cysteine protease inhibitors” (Merck Sharp & Dohme Corp., priority 2013, dated 2017)

target: human cathepsin K (UniProt P43236); assay: Cathepsin K Assay (hrbCat K); type: biochemical; conditions: Z-Leu-Arg-AMC substrate, pH 5.5, 15 min preincubation; read-out: hrbCat K (IP (nM))
Experimental: Cathepsin K Assay (hrbCat K)
Then 0.5 μL of DMSO from each dilution were added to 18.75 μL of assay buffer (MES, 50 mM (pH 5.5); EDTA, 2.5 mM; DTT, 2.5 mM and 10% DMSO) containing human cathepsin K (0.4 nM) in assay buffer solution. The assay solutions were mixed for 5-10 seconds on a shaker plate and incubated for 15 minutes at room temperature. Z-Leu-Arg-AMC (8 μM) in 6.25 μL of assay buffer was added to the assay solutions. Hydrolysis of the coumarin leaving group (AMC) was followed by spectrofluorometry (Exλ=360 nm; Emλ=460 nm) for 30 minutes. Percent of inhibition were calculated by fitting experimental values to standard mathematical model for dose response curve.

IC50 [nM] | Compound
161 | CC1CC1(C#N)NC(=O)[C@@H]1CCCC[C@H]1c1nc(-c2ccc(F)cn2)sc1-c1ccc(N2CCS(=O)(=O)CC2)cc1 (single isomer, unassigned) [Example 203, (1R,2R)-N-((1R,2S or 1R,2R or 1S,2S or 1S,2R)-1-cyano-2-methylcyclopropyl)-2-(5-(4-(1,1-dioxidothiomorpho-lino)phenyl)-2-(5-fluoropyridin-2-yl)thiazol-4-yl)cyclohexane-carboxamide]
59.5 | CC(C)(O)C(C#N)NC(=O)[C@@H]1CCCC[C@H]1c1nc(-c2ccc(F)cn2)sc1-c1ccc(N2CCS(=O)(=O)CC2)cc1 (single isomer, unassigned) [Example 227, (1R,2R)-N-((R or S)-1-cyano-2-hydroxy-2-methylpropyl)-2-(5-(4-(1,1-dioxidothiomorpho-lino)phenyl)-2-(5-fluoropyridin-2-yl)thiazol-4-yl)cyclohexane-carboxamide]
4.2 | N#CC1(NC(=O)[C@@H]2C[C@@H](F)CC[C@H]2c2nc(C3CC(F)C3)sc2-c2ccc(N3CCS(=O)(=O)CC3)cc2)CC1 (single isomer, unassigned) [Example 235, (1R,2R,5S)-N-(1-cyanocyclopropyl)-2-(5-(4-(1,1-dioxidothiomorpho-lino)phenyl)-2-((1R,3R or 1S,3S)-3-fluorocyclobutyl)thiazol-4-yl)-5-fluorocyclohexane-carboxamide]
1.7 | N#CC1(NC(=O)[C@@H]2CCC(F)(F)C[C@H]2c2nc(-c3cncc(F)c3)sc2-c2ccc(N3CCS(=O)(=O)CC3)cc2)CC1 [Example 108, (1R,2R)-N-(1-cyanocyclopropyl)-2-(5-(4-(1,1-dioxidothiomorpho-lino)phenyl)-2-(5-fluoropyridin-3-yl)thiazol-4-yl)-4,4-difluorocyclohexane-carboxamide]
66.7 | CC(C)(C#N)NC(=O)[C@@H]1C[C@@H](F)CC[C@H]1c1nc(-c2ccc(F)cn2)sc1-c1ccc(N2CCS(=O)(=O)CC2)cc1 [Example 140, (1R,2R,5S)-N-(2-cyanopropan-2-yl)-2-(5-(4-(1,1-dioxidothiomorpho-lino)phenyl)-2-(5-fluoropyridin-2-yl)thiazol-4-yl)-5-fluorocyclohexane-carboxamide]
4.2 | N#CC1(NC(=O)[C@@H]2CCC(F)(F)C[C@H]2c2nc(-c3cncc(F)c3)sc2-c2ccc(N3CCS(=O)(=O)CC3)cc2)CC1 [Example 218, (1R,2R)-N-(1-cyanocyclopropyl)-2-(5-(4-(1,1-dioxidothiomorpho-lino)phenyl)-2-(5-fluoropyridin-3-yl)thiazol-4-yl)-4,4-difluorocyclohexane-carboxamide]

Compound | IC50 [nM]
Cc1ncc(-c2nc([C@@H]3CCCC[C@H]3C(=O)NC3(C#N)CC3)c(-c3ccc(N4CCS(=O)(=O)CC4)cc3)s2)s1 [Example 52, (1R,2R)-N-(1-cyanocyclopropyl)-2-(5-(4-(1,1-dioxidothiomorpho-lino)phenyl)-2′-methyl-[2,5′-bithiazol]-4-yl)cyclohexane-carboxamide] | 2.3
